Molecules are shown by their SMILES. Non-standard residues stand in square brackets, D forms with d. Residues, ends and D or L forms follow the SMILES beside them. Nle = CCCC[C@H](N)C(=O)O

The test system of the data set is full thickness incision wounds in a rat model. In words: Scar formation dose-response of NorLeu3-A(1-7) in 2.5% alginate crosslinked with 5 mM CaCl2 (Example 3). The data set is classed as in vivo, Sprague Dawley rats. The settings on record: 1 mg/ml in the formulation; compared with surgical and vehicle controls; day 21. The procedure: This example was designed to determine the formation and remodeling of scar by clinical and histological evaluations in full thickness incision wounds in a rat model. Various doses of active ingredient were delivered in 2.5% alginate crosslinked with 5 mM CaCl2. • Species: • Sprague Dawley • Female (n=5/group for histology; 3/group for tensile strength) • Parameters Measured: • Appearance of Healing Wound (Gross and Histological of Dense Collagen by Image J) • Tensile Strength • Central, Blinded Adjudication of Photos on Day 21 • Photographic serial imaging • Experimental Groups: Surgical control, vehicle (2.5% alginate crosslinked with 5 mM CaCl2) and 2.5% alginate crosslinked with 5 mM CaCl2 with 0.3, 1, 3 or 5 mg/ml DSC127) Methods
Alginate was supplied by FMC BioPolymer. […]
During the experimental period, Sprague Dawley rats, 200-225 grams, were housed one per cage and maintained in a central animal care facility with a 12-hour light/dark cycle. […] The six tests groups that were evaluated are: surgical control, vehicle control and 30, 100, 300 or 500 μg/wound of NorLeu3-A(1-7) in the vehicle. […] The animals were monitored for breathing, urination and movement during the postoperative interval. […] During the first two weeks after surgery, scabbing, dehiscence and inflammation were assessed. […]
Scabbing was assessed on a 4-point scale (0,1,2,3) for none, mild, moderate and severe, respectively. […]

`CCCC[C@H](NC(=O)[C@H](CCCNC(=N)N)NC(=O)[C@@H](N)CC(=O)O)C(=O)N[C@@H](Cc1ccc(O)cc1)C(=O)N[C@H](C(=O)N[C@@H](Cc1c[nH]cn1)C(=O)N1CCC[C@H]1C(=O)O)[C@@H](C)CC` [NorLeu3-A(1-7), Asp-Arg-Nle-Tyr-Ile-His-Pro] (H-DR[Nle]YIHP-OH; N-terminus and C-terminus assumed): the “Inflammation at the site of the incision scored on histological sections” value is “trend towards reduced inflammation”.

The values are drawn from US10195282B2, “Use of alginate formulation for intraincisional drug delivery” (UNIVERSITY OF SOUTHERN CALIFORNIA, priority 2014, dated 2019).
